The numbers were not newly measured in patent US7834031B2, “Radiolabeled glycine transporter inhibitors” (Merck Sharp & Dohme Corp., priority 2005, dated 2010), which cites them from elsewhere.

Data set [1] concerns NMDA receptor activity. The note with it: rat.
Data set [2] has as its system pre-pulse inhibition. The note with it: mice; measure of sensory gating.
Data set [3] concerns symptoms of schizophrenia. Particulars: high doses, oral, add-on to standard neuroleptic therapy.
Data set [4] has as its system symptoms of schizophrenia. The note with it: schizophrenia patients poorly responsive to antipsychotic drugs.

Structures are written as SMILES.

Regarding `CN(CCC(Oc1ccc(-c2ccccc2)cc1)c1ccc(F)cc1)CC(=O)O` (stereo not shown) [NFPS, (N-[3-(4′-fluorophenyl)-3-(4′-phenylphenoxy)propyl])sarcosine], in data set [1], the “NMDA receptor activity and NMDA receptor-dependent long-term potentiation” value was “potentiates NMDA receptor activity and NMDA receptor-dependent long-term potentiation”. Further, the pre-pulse inhibition entry in data set [2] is on record as “enhance pre-pulse inhibition”. For the molecule `NCC(=O)O` [glycine], in data set [3], the “symptoms of schizophrenia patients” value is “improvement of the symptoms”. `CNCC(=O)O` [sarcosine]: the “effect on positive, negative and cognitive symptoms” value in data set [4] is listed as “beneficial effect”.
